Earlier results in US8557301B2, “Oral rehydration composition” (Drip Drop, Inc., priority 2011, dated 2013).

Tested on: net sodium and water absorption

O=C(CO)[C@@H](O)[C@H](O)[C@H](O)CO [fructose]
effect on potassium transport: stimulates potassium absorption
net sodium and water absorption stimulated, as much as glucose (relative to glucose): 66-100%
